Experimental data reported in patent US7981460B2, “Substituted benzyl ester derivative and use thereof” (Ajinomoto Co., Inc., priority 2006, dated 2011).
“And” between values parts separate entries of the source, which are not always exact repeats. Equal entries are not always repeated.

Assays:
[1] = system: auricle of hairless mouse (HR-1, female); experiment: External blood circulation enhancing action: vasodilatory effect (red spots) on auricle of hairless mouse; type: in vivo; design: key to Vasodilatory effect for hairless mouse (red spots, visual): ◯: clear red spots can be confirmed; Δ: weak red spots can be confirmed; x: no development of red spots; conditions: for Vasodilatory effect for hairless mouse (red spots, visual): applied to right ear; for Vasodilating effect: 5 wt % solution, solvents as in Tables 2 and 3
Experimental: The compound of each Example and capsaicin analog were compared for vasodilatory effect using auricle of hairless mouse. [Test method] A sample was applied to the right ear of hairless mouse (HR-1, female), and a control was applied to the left ear. Presence or absence of red spots development was visually evaluated, and evaluated according to the following indices. ◯: clear red spots can be confirmed Δ: weak red spots can be confirmed x: no development of red spots The samples were dissolved in liquid paraffin or ethanol. samples: Control: liquid paraffin or ethanol

[2] = Stability on contact with silica gel, yield (recovery rate) of PTLC purification as index; type: physicochemical
Experimental: Using vanillyl alcohol (1.70 g, 11.0 mmol) instead of piperonyl alcohol, and n-decanoic acid (1.72 g, 10 mmol) instead of 8-methylnonanoic acid in Example 1, a reaction similar to Example 1 was performed.
Using the yield (recovery rate) of purification by silica gel chromatography (PTLC) as an index, the stability of each Example compound was confirmed.

Row | Yield (recovery rate) after purification by PTLC, index of stability [2] | Structure (SMILES) | Vasodilatory effect for hairless mouse (red spots, visual) ([1]; 5 wt % in liquid paraffin) | Stability on purification by PTLC (contact with silica gel), in words [2] | Vasodilatory effect for hairless mouse (red spots, visual) ([1]; 5 wt % in ethanol) | Vasodilating effect [1] | other results
1 | – | COc1cc(COC(=O)CCCCCC(C)C)ccc1O [nordihydrocapsiate, 4-hydroxy-3-methoxybenzyl 7-methyl-octanoate, reference compound] | ∘ | – | – | – | Vasodilatory effect for hairless mouse (red spots, visual) ([1]; 1 wt % in liquid paraffin): Δ
2 | 43.1% | CCCCCCCCCC(=O)OCc1ccc(O)c(OC)c1 [vanillyl decanoate, reference compound] | – | decomposed by the contact with silica gel | – | – | –
3 | – | CC(C)CCCCCC(=O)OCc1ccc2c(c1)OCO2 [compound A-1, Piperonyl 7-methyloctanoate] | x | – | x | did not show a vasodilating effect | –
4 | – | COc1cc(COC(=O)CCCC/C=C/C(C)C)ccc1O [capsiate, 4-hydroxy-3-methoxybenzyl (E)-8-methyl-6-nonenoate, reference compound] | ∘ | – | ∘ | – | Vasodilatory effect for hairless mouse (red spots, visual) ([1]; 1 wt % in liquid paraffin): Δ
5 | – | COc1ccc(COC(=O)CCCCCC(C)C)cc1 [compound C-1, 4-methoxybenzyl 7-methyloctanoate] | Δ | – | – | weak vasodilating effect | –
6 | 81.0% | COc1ccc(COC(=O)CCCCCCC(C)C)cc1O [compound B, Isovanillyl 8-methylnonanoate] | ∘ | not decomposed even after purification by PTLC | – | strong vasodilating effect | –
7 | – | CCOc1cc(COC(=O)CCCCCCC(C)C)ccc1O [compound H, 3-ethoxy-4-hydroxybenzyl 8-methylnonanoate] | ∘ | – | – | clear vasodilating effect, though the expression of the effect was slow | –
8 | – | COc1cc(COC(=O)CCCC/C=C/C(C)C)ccc1OC(C)=O [compound G-1, 4-acetoxy-3-methoxybenzyl (E)-8-methyl-6-nonenoate] | ∘ | – | – | strong vasodilating effect | –
9 | – | CCC(C)CCCCC(=O)OCc1ccc(OC)cc1 (stereo not shown) [compound C-2, 4-methoxybenzyl 6-methyloctanoate] | x | – | x | did not show a vasodilating effect | –
10 | 90.2% | COc1ccc(COC(=O)CCCCCCC(C)C)cc1 [compound C, 4-methoxybenzyl 8-methylnonanoate] | ∘ | not decomposed even after purification by PTLC | – | strong vasodilating effect | –
11 | – | COc1ccc(COC(=O)CCCCCC(C)C)cc1O [compound B-1, Isovanillyl 7-Methyloctanoate] | Δ | – | – | weak vasodilating effect | –
12 | 89.1% | COc1ccc(COC(=O)CCCCCCC(C)C)cc1OC [compound D, Veratryl 8-methylnonanoate] | x | not decomposed even after purification by PTLC | – | did not show a vasodilating effect | –
13 | – | COc1cc(COC(=O)CCCCCCC(C)C)ccc1O [dihydrocapsiate, 4-hydroxy-3-methoxybenzyl 8-methylnonanoate, reference compound] | ∘ | – | – | – | Vasodilatory effect for hairless mouse (red spots, visual) ([1]; 1 wt % in liquid paraffin): Δ
14 | – | COc1cc(CNC(=O)CCCC/C=C/C(C)C)ccc1O [capsaicin, reference compound] | ∘ | – | ∘ | – | Vasodilatory effect for hairless mouse (red spots, visual) ([1]; 1 wt % in liquid paraffin): ∘
15 | – | CC(C)CCCCC(=O)OCc1ccc2c(c1)OCO2 [compound A-2, Piperonyl 6-methylheptanoate] | x | – | x | did not show a vasodilating effect | –
16 | – | COc1cc(CO)ccc1O [vanillyl alcohol, reference compound] | x | – | x | – | –
17 | 84.3% | CC(C)CCCCCCC(=O)OCc1ccc2c(c1)OCO2 [compound A, Piperonyl 8-methylnonanoate] | Δ | stabler than vanillyl decanoate even upon contact with silica gel | – | weak vasodilating effect | –
18 | – | CCC(C)CCCCCC(=O)OCc1ccc(OC)c(O)c1 (stereo not shown) [compound B-2, Isovanillyl 7-methyl Nonanoate] | x | – | ∘ | – | Vasodilatory effect in words ([1]; 5 wt % in ethanol): vasodilatory effect was observed; Vasodilatory effect in words ([1]; 5 wt % in ethanol, listed as Compound B-2): showed a vasodilating effect; Vasodilatory effect, note in words (onset, duration) ([1]; 5 wt % in liquid paraffin): did not show a vasodilating effect
19 | – | CC(C)CCCCCCC(=O)OCc1ccc(O)cc1 [compound F, 4-hydroxybenzyl 8-methylnonanoate] | Δ | – | – | weak vasodilating effect | –

Row | Structure (SMILES) | Yield (recovery rate) after purification by PTLC, index of stability [2] | Vasodilatory effect for hairless mouse (red spots, visual) ([1]; 5 wt % in liquid paraffin) | Stability on purification by PTLC (contact with silica gel), in words [2] | Vasodilatory effect for hairless mouse (red spots, visual) ([1]; 5 wt % in ethanol) | Vasodilating effect [1] | other results
20 | COc1cc(COC(=O)CCCCCCC(C)C)ccc1OC(C)=O [compound G, 4-acetoxy-3-methoxybenzyl 8-methylnonanoate] | 82.9% and 85.7% | ∘ | not decomposed even after purification by PTLC | – | strong vasodilating effect | –
